Assay results taken from ChEMBL document CHEMBL1151113, “Umuhengerin, a new antimicrobially active flavonoid from Lantana trifolia” (1988).
In brackets after ≈: the same amount, converted by molar mass. Activity calls are given as the source filed them. The rule behind the calls is not given here.

Experiments:
[1] = test system: Staphylococcus aureus; experiment: Antibacterial activity against Staphylococcus aureus ATCC 25923; type: functional
[2] = test system: Micrococcus; experiment: Antibacterial activity against Micrococcus sp.; type: functional
[3] = test system: Streptococcus pneumoniae; experiment: Antibacterial activity against Streptococcus pneumoniae; type: functional
[4] = test system: Streptococcus pyogenes; experiment: Antibacterial activity against Streptococcus pyogenes; type: functional
[5] = test system: Microsporum canis; experiment: Antifungal activity against Microsporum canis; type: functional
[6] = test system: Streptococcus viridans; experiment: Antibacterial activity against Streptococcus viridans; type: functional
[7] = test system: Neisseria gonorrhoeae; experiment: Antibacterial activity against Neisseria gonorrhoeae; type: functional
[8] = test system: Klebsiella aerogenes; experiment: Antibacterial activity against Enterobacter aerogenes; type: functional
[9] = test system: Escherichia coli; experiment: Antibacterial activity against Escherichia coli; type: functional
[10] = test system: Klebsiella pneumoniae; experiment: Antibacterial activity against Klebsiella pneumoniae; type: functional
[11] = test system: Proteus vulgaris; experiment: Antibacterial activity against Proteus vulgaris; type: functional
[12] = test system: Pseudomonas aeruginosa; experiment: Antibacterial activity against Pseudomonas aeruginosa; type: functional
[13] = test system: Salmonella typhimurium; experiment: Antibacterial activity against Salmonella Typhimurium; type: functional, Salmonella enterica subsp. enterica serovar Typhimurium; details: Salmonella enterica
[14] = test system: Serratia marcescens; experiment: Antibacterial activity against Serratia marcescens; type: functional
[15] = test system: Shigella flexneri; experiment: Antibacterial activity against Shigella flexneri; type: functional
[16] = test system: Mycolicibacterium fortuitum; experiment: Antibacterial activity against Mycobacterium fortuitum; type: functional
[17] = test system: Candida albicans; experiment: Antifungal activity against Candida albicans; type: functional
[18] = test system: Candida tropicalis; experiment: Antifungal activity against Candida tropicalis; type: functional
[19] = test system: Aspergillus flavus; experiment: Antifungal activity against Aspergillus flavus; type: functional
[20] = test system: Aspergillus fumigatus; experiment: Antifungal activity against Aspergillus fumigatus; type: functional
[21] = test system: Aspergillus niger; experiment: Antifungal activity against Aspergillus niger; type: functional
[22] = test system: Trichophyton mentagrophytes; experiment: Antifungal activity against Trichophyton mentagrophytes; type: functional
[23] = test system: Trichophyton rubrum; experiment: Antifungal activity against Trichophyton rubrum; type: functional
[24] = test system: Human alphaherpesvirus 1; experiment: Antiviral activity against Herpes simplex virus 1 in african green monkey Vero cells; type: functional, organism-based
[25] = test system: Coxsackievirus; experiment: Antiviral activity against Coxsackievirus B2 in african green monkey Vero cells; type: functional, organism-based
[26] = test system: Poliovirus 1; experiment: Antiviral activity against Human poliovirus 1 1A/S2 in african green monkey Vero cells; type: functional, organism-based
[27] = test system: Semliki Forest virus; experiment: Antiviral activity against Semliki forest virus in african green monkey Vero cells; type: functional, organism-based

Q: For COc1cc(-c2cc(=O)c3c(O)c(OC)c(OC)cc3o2)cc(OC)c1OC [GRADENIN A], which MIC [1] is on record?
A: Its MIC is 20 µg/mL (≈ 51.5 µM).

Q: And the MIC [2]?
A: The MIC was > 200 µg/mL.

Q: What about the MIC [3] of the same compound?
A: Its MIC is > 200 µg/mL.

Q: And the MIC [4]?
A: The MIC was > 200 µg/mL.

Q: What about the MIC [5] of the same compound?
A: Its MIC is 50 µg/mL (≈ 129 µM).

Q: What about the MIC [6] of the same compound?
A: The MIC was > 200 µg/mL.

Q: And the MIC [7]?
A: The MIC was > 200 µg/mL.

Q: What about the MIC [8] of the same compound?
A: Its MIC is > 200 µg/mL.

Q: What about the MIC [9] of the same compound?
A: Its MIC is > 200 µg/mL.

Q: And the MIC [10]?
A: The MIC was > 200 µg/mL.

Q: And the MIC [11]?
A: The MIC was > 200 µg/mL.

Q: And the MIC [12]?
A: The MIC was > 200 µg/mL.

Q: And the MIC [13]?
A: Its MIC is 5 µg/mL (≈ 12.9 µM).

Q: And the MIC [14]?
A: Its MIC is > 200 µg/mL.

Q: And the MIC [15]?
A: The MIC was > 200 µg/mL.

Q: What about the MIC [16] of the same compound?
A: The MIC was > 200 µg/mL.

Q: And the MIC [17]?
A: The MIC was > 200 µg/mL.

Q: What about the MIC [18] of the same compound?
A: The MIC was 20 µg/mL (≈ 51.5 µM).

Q: And the MIC [19]?
A: Its MIC is > 200 µg/mL.

Q: What about the MIC [20] of the same compound?
A: The MIC was 200 µg/mL (≈ 515 µM).

Q: And the MIC [21]?
A: The MIC was 200 µg/mL (≈ 515 µM).

Q: And the MIC [22]?
A: The MIC was 50 µg/mL (≈ 129 µM).

Q: And the MIC [23]?
A: The MIC was > 200 µg/mL.

Q: And the Activity [24]?
A: Its Activity is “inactive”.

Q: What about the Activity [25] of the same compound?
A: The Activity was “inactive”.

Q: What about the Activity [26] of the same compound?
A: The Activity was “inactive”.

Q: And the Activity [27]?
A: Its Activity is “inactive”.
